Literature values, collected in patent US20090192128A1 (priority 2005, published 2009).
Structures can show the parent of a compound that is named as a salt.

solubility in alcohol (alcohol) | solubility in ether (ether) | Structure (SMILES) | solubility in organic solvents (organic solvents such as ethanol, ether and chloroform) | solubility in water
 |  | O=[N+]([O-])O[C@H]1CO[C@H]2[C@@H]1OC[C@H]2O[N+](=O)[O-] [Diluted isosorbide dinitrate, 1,4,3,6-dianhydro-D-glucitol-2,5-dinitrate] | freely soluble | sparingly soluble
slightly soluble | very slightly soluble | NNc1nncc2ccccc12 [Hydralazine hydrochloride, hydralazine hydrochloride] |  | soluble
